# Publication PMC4813465, “Selective Inhibition of the Mitochondrial Permeability Transition Pore Protects against Neurodegeneration in Experimental Multiple Sclerosis” (The Journal of Biological Chemistry, 2015)
# Legend:
# K133I CypD = K133I CypD (Homo sapiens, UniProt P30405, K175I); test: Fluorescence polarization cyclophilin binding assay, CypD; conditions: probe 45 nM, enzyme 40 nM
# Method: (§1) Titration of a single probe concentration against different enzyme concentrations was used to determine the dissociation constant (Kd). From this we also determined the enzyme concentration that would give a high enough polarization signal to measure binding affinities.
# (§2) At least three replicates were used for each experiment. The percentage of DMSO in the total solution should remain lower than 1%. […] Measurements were taken after gain adjustment of control sample and 30-min incubation with a xenon flash light with filter settings for 485-nm excitation and 520-nm emission.
# CypA = CypA (Homo sapiens, UniProt P62937); test: Fluorescence polarization cyclophilin binding assay, CypA; conditions: probe 45 nM, enzyme 40 nM
# Chain of CypA (P62937 whole entry, species assumed): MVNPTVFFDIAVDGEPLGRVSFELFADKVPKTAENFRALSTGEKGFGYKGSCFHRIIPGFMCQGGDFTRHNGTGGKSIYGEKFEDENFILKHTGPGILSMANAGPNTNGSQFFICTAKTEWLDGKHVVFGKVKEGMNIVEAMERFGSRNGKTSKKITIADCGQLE
# Source text: Fluorescence polarization (FP) is inversely related to the molecular rotation of the fluorophore. Fluorophores linked to small molecules tumble faster and emit less polarized fluorescence than fluorophore-small molecules bound to proteins. FP is a convenient technique to measure affinity of ligands to cyclophilins ([59], [60]).
# as §1, §2
# [1] = tested on: experimental autoimmune encephalomyelitis; test: Relapsing-progressive EAE in ABH mice (neurological score, RotaRod, neurofilament ELISA); assay type: in vivo, mouse
# Method: Mice were injected subcutaneously with 1 mg of freeze-dried mouse spinal cord homogenate (SCH) in Freund's adjuvant on days 0 and 7 as described previously ([71]). After the initial paralytic disease and subsequent remission, a relapse was induced by a further injection of SCH in Freund's incomplete adjuvant on day 28 to induce a relapse 7 days later ([71]). Studies were randomized, blinded, and powered as described previously ([71]). Neurological scores were graded as 0 = normal, 1 = limp tail, 2 = impaired righting reflex, 3 = hind limb paresis, 4 = complete hind limb paralysis, and 5 = moribund/death ([71]). Results are expressed as mean ± S.E. maximum or minimum neurological score and mean day of onset ± S.D. The clinical scores are presented as the mean daily neurological score ± S.E. Differences in clinical scores were assessed using non-parametric, Mann-Whitney U statistics ([71]). Motor control and coordination were assessed on an accelerating (4–40 rpm, accelerating at 6 rpm/25 s) RotaRod (ENV-575M, Med Associates Inc., St. Albans, VT) as described previously ([71]). This was performed 1 day before induction of relapse and at the termination of the experiment on day 45. RotaRod assessment was performed blinded to treatment. Animals were randomized to vehicle or treatment based on their RotaRod scores. Results are expressed as mean ± S.E. time that animals maintained rotarod activity. Differences in rota activity and quantitative neurofilament ELISA were assessed using Student's t test incorporating tests for equality of variance using Sigmaplot (Systat Software, Inc., San Jose, CA) ([71]).
# At the end of the experiment, the spinal cord was removed, and an ELISA for heavy chain neurofilament on spinal cord was performed. Total nerve content of each spinal cord was estimated following calibration against neurofilament protein standards as described previously ([71], [72]).
# Neurofilament level as a validated correlate of spinal cord axonal content as determined by histology was determined as follows. […] Tissues were snap-frozen and stored at −80 °C before homogenization. Tissues were homogenized in a glass homogenizer in 1 ml/100 mg of spinal cord tissue wet weight homogenization buffer (0.2 mM PMSF, 1 mM EDTA, 1 mM EGTA, 4 M urea, 10 mM Tris-HCl (Sigma), pH 7.2) plus 1:100 HALT protease inhibitor mixture (Thermo Fisher Scientific) and further homogenized by sonication twice for 10 s (Cole-Parmer Instruments, Vernon Hills, IL). Samples were spun down at 13,000 rpm in a bench top centrifuge (Eppendorf), and the supernatant was collected and stored at −80 °C before neurofilament determination. Samples were thawed on ice, and an ELISA for heavy chain neurofilament was performed. Briefly, a 96-well plate was coated overnight at 4 °C with capture antibody (1:5000; SMI35 anti-neurofilament H, Cambridge Bioscience, Cambridge, UK) in coating buffer (0.15 M Na2CO3, 0.35 M NaHCO3 (Sigma), pH 9.6). Following one wash in wash buffer (150 mM NaCl, 10 mM Tris-HCl, 0.1% Tween 20 (Sigma), pH 7.5), nonspecific binding was blocked by incubation with 5% bovine serum albumin (Sigma) in wash buffer for 1 h at room temperature. Following a wash step, samples and standards (porcine neurofilament heavy chain, Chemicon International) were diluted in wash buffer with 1% bovine serum albumin and incubated on the plate for 1 h at room temperature. Following five wash steps, the detector antibody was applied (1:1000 rabbit anti-NF200, Sigma) and incubated for a further 1 h at room temperature. The plate was washed five times, and the reporter antibody was applied (1:1000 swine anti-rabbit HRP conjugate, DAKO). Following a final five washes, tetramethylbenzidine substrate (Sigma) was applied, and color production was measured on a BioTek Synergy HT plate reader at 450 nm.
# [2] = tested on: mitochondria of rat cortical neurons and isolated liver mitochondria; test: Mitochondrial functional parameters (membrane potential, oxygen consumption, ATP production) in cultured rat neurons and isolated mitochondria; assay type: cell-based
# Method: Oxygen consumption was measured using Oroboros Oxygraph-2K as described previously ([62]). Prior to the assay, the Oxygraph chambers were calibrated with Miro5 buffer (0.5 mM EGTA, 3 mM MgCl2·6H2O, 60 mM potassium lactobionate, 20 mM taurine, 10 mM KH2PO4, 20 mM HEPES, 110 mM sucrose, 1 g/liter BSA (essentially fatty acid-free)). Isolated mitochondria were suspended in Miro5 (at 100–200 μg/ml) and loaded into the chamber together with substrates (malate, 2 mM; glutamate, 10 mM), and the O2 flow signal was allowed to stabilize to the basal respiration rate (∼10 min). […] Data were analyzed by subtracting the antimycin A respiration rate to give mitochondrial specific O2 flow and were then expressed as a percentage of the basal O2 flow.
# Rat cortical neurons, cultured for 8–9 days, were incubated for 40 min at 37 °C with the cell-permeant cationic dye tetramethylrhodamine methyl ester (25 nM), and fluorescence was measured using the ImageXpress Micro XL system (Molecular Devices). […] The minimum value after the addition of compound (prior to the addition of FCCP) was taken, and this was expressed as a percentage (using the baseline as 100% and FCCP as 0%) and then normalized to DMSO (100%).
# Freshly isolated mouse liver mitochondria were suspended in MSK buffer containing 10 μg/ml rhodamine 123 (dequench mode), at a concentration of 500 μg/ml, and plated in an opaque black 96-well plate. […]
# rat cortical neurons = test: Mitochondrial membrane potential (TMRM) in rat cortical neurons; assay type: cell-based
# Source text: The minimum value after the addition of compound (prior to the addition of FCCP) was taken, and this was expressed as a percentage (using the baseline as 100% and FCCP as 0%) and then normalized to DMSO (100%).
# [3] = molecular target: Ca2+-mediated PT pore formation (Mus musculus, UniProt Q99KR7); conditions: liver mitochondria
# Chain of Ca2+-mediated PT pore formation (Q99KR7 30-206): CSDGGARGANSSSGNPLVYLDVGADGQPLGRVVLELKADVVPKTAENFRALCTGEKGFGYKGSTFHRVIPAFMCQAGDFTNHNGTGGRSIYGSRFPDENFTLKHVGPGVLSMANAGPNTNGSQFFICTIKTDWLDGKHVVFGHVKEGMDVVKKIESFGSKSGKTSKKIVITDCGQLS
# [4] = tested on: splenocytes from MOG 35-55 immunized ABH mice; test: Myelin antigen (MOG 35-55)-induced T cell proliferation; assay type: cell-based, mouse; conditions: MOG residues 35–55, 5 μg/ml
# Method: ABH mice were injected subcutaneously in the flank with 100 μg of myelin oligodendrocyte glycoprotein (MOG) peptide residues 35–55 (Cambridge Research Biochemicals Ltd., Billingham, UK) emulsified in Freund's adjuvant containing 200 μg of Mycobacterium tuberculosis H37Ra (Difco, Becton Dickinson, Oxford, UK) on days 0 and 7 ([69]). Spleens were collected and prepared and analyzed as above except that mitogens were replaced with 5 μg/ml MOG 35–55 peptide, and cells were incubated for 72 h before the addition of tritiated thymidine.
# TRIM-CypA = TRIM-CypA (Homo sapiens, UniProt P62937+Q6PIZ9)
# Chain of TRIM-CypA (P62937 2-165, one chain of several): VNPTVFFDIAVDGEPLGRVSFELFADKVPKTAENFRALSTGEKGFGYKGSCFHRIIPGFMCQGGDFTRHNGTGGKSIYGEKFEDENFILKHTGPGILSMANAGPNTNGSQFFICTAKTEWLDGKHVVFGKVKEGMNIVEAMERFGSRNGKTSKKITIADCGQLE
# Method: Viral supernatant was collected 48 h post-transfection and stored at −80 °C.
# To generate CRFK cells stably expressing N-terminally HA-tagged TRIM-CypA from an EXN-based vector, murine leukemia virus (MLV) vector was prepared as above, using pMDG, CMVi MLV gag-pol expression vector, and γ-retroviral expression vector encoding a fusion protein comprising human CypA downstream of owl monkey TRIM5 RBCC (EXN-TRIM-CypA) ([67]). CRFK cells, which are null for TRIM5α activity ([68]), were then transduced with vector, followed by selection of cells in 1 mg/ml G418 (Invitrogen).
# Infectivity was measured by flow cytometry 48 h postinfection.
# [5] = tested on: T cell proliferative response in draining auricular lymph node; test: In vivo T cell proliferation, oxazolone contact hypersensitivity; parameters: species or system mouse
# Method: The contact sensitizer 4-ethoxymethylene-2-phenyl-2-oxazolin-5-one (oxazolone; Sigma) was dissolved (25 mg/ml) in 4:1 acetone/olive oil. Mice (n = 3/group) received epicutaneous application of either 25 μl of 2.5% oxazolone or acetone/olive oil on the dorsum of the ear on day 0 ([70]). The draining auricular lymph nodes were removed 3 days later, and the induced proliferative response was assessed as described previously. Briefly, 5 × 10^5 cells/well were cultured in RPMI 1640 medium with glutamate (Gibco®, Invitrogen Ltd., Paisley UK), supplemented with 0.5 mM sodium, in round-bottomed 96-well plates overnight at 37 °C in a humidified atmosphere of 5% CO2 in the presence of 1 μCi of [^3H]thymidine (PerkinElmer Life Sciences) per well. DNA synthesis was estimated using β-scintillation counting as above. […] Results are expressed as mean ± S.E. thymidine incorporation counts/min.
# [6] = before treatment (baseline of the JW47 group)
# Chain of K133I CypD (P30405 43-207 K175I): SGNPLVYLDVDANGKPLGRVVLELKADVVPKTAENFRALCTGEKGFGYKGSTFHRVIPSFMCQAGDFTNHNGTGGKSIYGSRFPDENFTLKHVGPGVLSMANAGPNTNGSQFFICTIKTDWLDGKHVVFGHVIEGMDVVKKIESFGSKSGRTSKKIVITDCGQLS
SMILES,Ki (K133I CypD),Ki (CypA),incidence of disease (relapse) ([1]; 1 mg/kg intraperitoneally daily from day 33),"onset of induced relapse ([1]; 1 mg/kg intraperitoneally daily, SCH injection day 28, mean ± S.D.)","rotorod activity during the second remission after relapse ([1]; 1 mg/kg intraperitoneally daily, day 45)","minimal neurological score during the second remission ([1]; 1 mg/kg intraperitoneally daily, p < 0.001 vs vehicle)","maximal severity disease score ([1]; 1 mg/kg intraperitoneally daily, score 0–5, mean ± S.E.)","loss of nerves and axons within the spinal cord, neurofilament ELISA ([1]; 1 mg/kg intraperitoneally daily, vs vehicle)","minimal clinical score during the first remission [1, 6]","rotorod activity on day 27 during the first remission [1, 6]","concentration up to which mitochondrial membrane potential, oxygen consumption and ATP production were not affected [2]",effect on mitochondria in cortical neurons (rat cortical neurons; 40 nM),effect on mitochondria in cortical neurons (rat cortical neurons; 1 μM),concentration that inhibited neuronal mitochondrial membrane potential (rat cortical neurons; rat cortical neurons),"effect on CRC, mitochondria from WT mice [3]",immunosuppressive activity in antigen-driven proliferation assay [4],rescue of HIV-1 infectivity in TRIM-CypA cells (TRIM-CypA),"effect on T cell response, contact hypersensitivity model ([5]; 0.1 mg/kg intraperitoneally daily)","effect on T cell response, contact hypersensitivity model ([5]; 1 mg/kg intraperitoneally daily)","effect on T cell response, contact hypersensitivity model ([5]; 10 mg/kg intraperitoneally daily)"
C/C=C/C[C@@H](C)[C@@H](O)[C@H]1C(=O)N[C@@H](CC)C(=O)N(C)[C@H](Cc2ccc(C(=O)O)cc2)C(=O)N(C)[C@@H](CC(C)C)C(=O)N[C@@H](C(C)C)C(=O)N(C)[C@@H](CC(C)C)C(=O)N[C@@H](C)C(=O)N[C@H](C)C(=O)N(C)[C@@H](CC(C)C)C(=O)N(C)[C@@H](CC(C)C)C(=O)N(C)[C@@H](C(C)C)C(=O)N1C [SmBzCsA],202 ± 14.1 nM,236 ± 8.4 nM,–,–,–,–,–,–,–,–,–,–,–,–,–,–,–,–,–,–
"CC[C@@H]1NC(=O)[C@H]([C@H](O)[C@H](C)C/C=C/CCC[n+]2cccc3ccccc32)N(C)C(=O)[C@H](C(C)C)N(C)C(=O)[C@H](CC(C)C)N(C)C(=O)[C@H](CC(C)C)N(C)C(=O)[C@@H](C)NC(=O)[C@H](C)NC(=O)[C@H](CC(C)C)N(C)C(=O)[C@H](C(C)C)NC(=O)[C@H](CC(C)C)N(C)C(=O)CN(C)C1=O [JW47, [Gly-(1S,2R,E)-8-quinolinium-1-hydroxy-2-methyloct-4-ene]^1 CsA]",–,–,14 of 14,34.5 ± 0.7 days,135.0 ± 42.9 s,1.4 ± 0.3,3.9 ± 0.1,lost significantly (p < 0.01) fewer nerves,0.6 ± 0.1,168.8 ± 21.8 s,up to 200 nM,not affected,significantly depolarized,1000 nM,significantly increased,markedly less immunosuppressive activity compared with CsA,no activity,no effect,no effect,inhibited the T cell response
